According to paper PMC8962522, “Direct interaction of TrkA/CD44v3 is essential for NGF-promoted aggressiveness of breast cancer cells” (Journal of Experimental & Clinical Cancer Research : CR, 2022):

Test system: MDA-MB-231 cell metastasis
Test: Metastasis of MDA-MB-231 xenografts (PCR of human microglobulin)
Assay type: in vivo, SCID mice
Conditions: lung, brain and liver; mice sacrificed when primary tumors reached the same size
Protocol: MDA-MB-231 cells (2 × 10^6) were subcutaneously injected into the flanks of six-week-old female SCID mice. One month after injection, the mice were randomized into 2 groups and injected near the tumor with CD44v3 mimetic peptide 4 (P4) or not (control) five times in a 3-day interval. Tumor volume was determined throughout the experiment by measuring the length (l) and width (w) and was calculated as π/6 × l × w × […]. Animals were sacrificed using isoflurane anesthesia when the tumors reached a similar size, and the organs were immediately removed and stored in liquid nitrogen.
Each organ was placed in a Precellys tube with QIAzol (1 mL) for lysis using a Precellys machine (3×). […]
To assess the role of TrkA/CD44v3 in vivo, SCID mice were injected with MDA-MB-231 cells to generate xenografts. Primary tumor development and metastasis (to the lung, brain and liver) were analyzed (Fig. 6). […] The development of primary tumors was measured throughout the experiments. […] We also assessed the metastatic burden. […] Micrometastases were detected at the end of the experiment by PCR of human microglobulin in xenograft mice treated with or without the CD44v3 mimetic peptide (Fig. 6E). […]
Fig. 6 CD44v3 mimetic peptide 4 blocks MDA-MB-231 tumor growth and metastasis. […] Body weight (B) and tumor volume (C) were measured following CD44v3 mimetic peptide administration (10 mice per group). […]

Sequence: IDDDEDFISST [Peptide 4, mimetic peptide 4 (…) corresponding to the C-terminal region of CD44v3]
- metastatic burden (in words): decreased the metastatic burden at each analyzed location
